Measurements published in US10301267B2, “Compounds” (AstraZeneca AB, priority 2006, dated 2019).

Biological target: T1, transiently expressed FGFR1 IIIc in Cos-1 cells (Homo sapiens, UniProt P11362)
T1 construct: The clone was full-length, wild-type FGFR1 IIIc isoform; host or cells: Cos-1
Experiment: Cell FGFR1 - cell based inhibition of transiently expressed FGFR1 IIIc phosphorylation
Conditions: phospho-FGFR1
From the text: Cell FGFR1—Cell Based Inhibition of Transiently Expressed FGFR1 IIIc Phosphorylation (Measured Using Phospho-Specific Primary and Fluorescent Secondary Antibodies).
This assay is designed to detect inhibitors of transiently expressed FGFR1 phosphorylation by antibody staining of fixed cells detected using ArrayScan technology. (For a description of Array Scan technology see http://www.cellomics.com/content/menu/Arrayscan/)
Cos-1 cells were routinely passaged in DMEM (Gibco BRL, 41966) plus 3% foetal calf serum (FCS), 1% L-glutamine (Gibco BRL, 25030) to a confluence of 80%. To undertake the assay, Cos-1 cells were harvested at 90-95% confluence for cell transfection. […]
The harvested Cos-1 cells are counted using a coulter counter and diluted further with 1% FCS/DMEM to 2.5×10^5 cells/ml. […]
Following incubation at room temperature for 1 hour, the antibody solution was removed and the wells were washed once with 200 ul/well PBS/A. Then 40 μl 1/500 secondary antibody (A111005; goat anti-mouse 594) solution and 1/10000 Hoechst (diluted together in PBS/A with 10% FCS+0.1% Tween 20) were added and the plate incubated in the dark at room temperature for one hour. […] The plates were read on an Arrayscan (Cellomics). […]

T1 sequence (P11362 22-822): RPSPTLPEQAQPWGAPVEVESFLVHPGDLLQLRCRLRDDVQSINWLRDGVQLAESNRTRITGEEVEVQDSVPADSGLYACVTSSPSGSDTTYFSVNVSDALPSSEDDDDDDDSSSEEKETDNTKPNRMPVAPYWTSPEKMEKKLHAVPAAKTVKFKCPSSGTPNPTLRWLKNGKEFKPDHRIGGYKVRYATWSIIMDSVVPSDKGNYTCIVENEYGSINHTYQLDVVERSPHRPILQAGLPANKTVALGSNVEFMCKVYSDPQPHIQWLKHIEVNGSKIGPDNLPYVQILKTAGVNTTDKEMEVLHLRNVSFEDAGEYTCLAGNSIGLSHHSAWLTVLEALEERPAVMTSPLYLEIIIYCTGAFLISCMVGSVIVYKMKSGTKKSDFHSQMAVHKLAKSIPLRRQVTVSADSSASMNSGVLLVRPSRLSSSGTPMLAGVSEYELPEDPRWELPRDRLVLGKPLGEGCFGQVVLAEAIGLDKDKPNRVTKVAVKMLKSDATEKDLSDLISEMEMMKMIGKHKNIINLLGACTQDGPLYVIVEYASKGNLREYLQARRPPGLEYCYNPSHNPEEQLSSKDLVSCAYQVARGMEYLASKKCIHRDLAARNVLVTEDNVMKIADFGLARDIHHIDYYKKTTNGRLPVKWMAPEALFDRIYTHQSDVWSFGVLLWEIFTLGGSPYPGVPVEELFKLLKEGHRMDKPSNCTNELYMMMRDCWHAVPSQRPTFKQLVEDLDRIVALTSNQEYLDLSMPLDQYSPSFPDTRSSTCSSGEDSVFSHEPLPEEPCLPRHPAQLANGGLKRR

COc1cc(CCc2cc(NC(=O)c3ccc(CC(C)N)cc3)n[nH]2)cc(OC)c1 (stereo not shown) [Example 49, 4-(2-Aminopropyl)-N-[5-[2-(3,5-dimethoxyphenyl)ethyl]-1H-pyrazol-3-yl]benzamide]
IC50: 1470 nM
